Assay results reported in PubChem BioAssay (NCI).
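1) Cells in 96-well plates. 2) Compound, 48 h, 5 concentrations. 3) Linear interpolation between surrounding doses. 4) Unreached endpoint = highest concentration. TGI denotes the concentration required for complete inhibition of growth.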

Columns and labels:
Experiment in all cases: inhibition of tumour cell growth, NCI panel, 48 h
786-0 renal = system: 786-0 renal
BT-549 breast = system: BT-549 breast
CCRF-CEM leukemia = system: CCRF-CEM leukemia
M14 melanoma = system: M14 melanoma
MDA-MB-231 breast = system: MDA-MB-231 breast
OVCAR-4 ovarian = system: OVCAR-4 ovarian
RXF 393 renal = system: RXF 393 renal
SF-295 CNS = system: SF-295 CNS
SW-620 colon = system: SW-620 colon
UACC-62 melanoma = system: UACC-62 melanoma

## Cc1nc2ccccc2c(=O)n1NC(=O)c1ccccc1O
786-0 renal
  TGI: > 100 µM
BT-549 breast
  TGI: > 100 µM
CCRF-CEM leukemia
  TGI: > 100 µM
M14 melanoma
  TGI: > 100 µM
MDA-MB-231 breast
  TGI: > 100 µM
OVCAR-4 ovarian
  TGI: > 100 µM
RXF 393 renal
  TGI: > 100 µM
SF-295 CNS
  TGI: > 100 µM
SW-620 colon
  TGI: > 100 µM
UACC-62 melanoma
  TGI: > 100 µM

## CC1=CCC[C@@H]2[C@@](C)(Cc3cc(O)ccc3O)[C@H](C)CC[C@@]12C
786-0 renal
  TGI: 21.7 µM
BT-549 breast
  TGI: 13.1 µM
CCRF-CEM leukemia
  TGI: 15.1 µM
M14 melanoma
  TGI: 15.7 µM
MDA-MB-231 breast
  TGI: 30.2 µM
OVCAR-4 ovarian
  TGI: 25.7 µM
RXF 393 renal
  TGI: 17.1 µM
SF-295 CNS
  TGI: 20 µM
SW-620 colon
  TGI: 25.2 µM
UACC-62 melanoma
  TGI: 25.1 µM

## O=C1NC(=O)C(C(c2ccc(Cl)cc2)C2C(=O)NC(=O)NC2=O)C(=O)N1
786-0 renal
  TGI: > 100 µM
BT-549 breast
  TGI: > 100 µM
CCRF-CEM leukemia
  TGI: > 100 µM
M14 melanoma
  TGI: > 100 µM
MDA-MB-231 breast
  TGI: > 100 µM
OVCAR-4 ovarian
  TGI: > 100 µM
RXF 393 renal
  TGI: > 100 µM
SF-295 CNS
  TGI: > 100 µM
SW-620 colon
  TGI: > 100 µM
UACC-62 melanoma
  TGI: > 100 µM

## CCCC(=O)OC[n+]1cccc(-c2c(COC(=O)NC(C)C)c(COC(=O)NC(C)C)c3n2CCC3)c1
786-0 renal
  TGI: > 100 µM
BT-549 breast
  TGI: > 100 µM
CCRF-CEM leukemia
  TGI: > 66.3 µM
M14 melanoma
  TGI: > 100 µM
MDA-MB-231 breast
  TGI: > 100 µM
OVCAR-4 ovarian
  TGI: > 100 µM
RXF 393 renal
  TGI: > 56.7 µM
SF-295 CNS
  TGI: > 100 µM
SW-620 colon
  TGI: > 100 µM
UACC-62 melanoma
  TGI: 61.8 µM

## O=C(O)c1cc(=O)[nH]c(=S)[nH]1
786-0 renal
  TGI: > 100 µM
BT-549 breast
  TGI: > 100 µM
CCRF-CEM leukemia
  TGI: > 100 µM
M14 melanoma
  TGI: > 100 µM
MDA-MB-231 breast
  TGI: > 100 µM
OVCAR-4 ovarian
  TGI: > 100 µM
RXF 393 renal
  TGI: > 100 µM
SF-295 CNS
  TGI: > 100 µM
SW-620 colon
  TGI: > 100 µM
UACC-62 melanoma
  TGI: > 100 µM

## Oc1c(-c2ccccc2)sc2ccccc12
786-0 renal
  TGI: 59 µM
BT-549 breast
  TGI: 89.4 µM
CCRF-CEM leukemia
  TGI: 62.5 µM
M14 melanoma
  TGI: 50.6 µM
MDA-MB-231 breast
  TGI: 29.1 µM
OVCAR-4 ovarian
  TGI: > 100 µM
RXF 393 renal
  TGI: 45.1 µM
SF-295 CNS
  TGI: 45.7 µM
SW-620 colon
  TGI: > 100 µM
UACC-62 melanoma
  TGI: > 100 µM

## CCCCCC(=O)OCC1(CO)C/C(=C\CC(C(C)C)C(C)C)C(=O)O1 (stereo not given)
786-0 renal
  TGI: > 100 µM
BT-549 breast
  TGI: > 100 µM
CCRF-CEM leukemia
  TGI: > 100 µM
M14 melanoma
  TGI: > 100 µM
MDA-MB-231 breast
  TGI: > 100 µM
OVCAR-4 ovarian
  TGI: > 100 µM
RXF 393 renal
  TGI: > 100 µM
SF-295 CNS
  TGI: > 100 µM
SW-620 colon
  TGI: 64.4 µM
UACC-62 melanoma
  TGI: > 100 µM

## Cn1cc(C[C@@H](N)C(=O)O)c2ccccc21
786-0 renal
  TGI: > 100 µM
BT-549 breast
  TGI: > 100 µM
CCRF-CEM leukemia
  TGI: > 100 µM
M14 melanoma
  TGI: > 100 µM
MDA-MB-231 breast
  TGI: > 100 µM
OVCAR-4 ovarian
  TGI: > 100 µM
RXF 393 renal
  TGI: > 100 µM
SF-295 CNS
  TGI: > 100 µM
SW-620 colon
  TGI: > 100 µM
UACC-62 melanoma
  TGI: > 100 µM

## CN1CCN(C(=S)N(C(=O)c2ccco2)c2ccccc2)CC1
786-0 renal
  TGI: > 100 µM
BT-549 breast
  TGI: > 100 µM
CCRF-CEM leukemia
  TGI: > 100 µM
M14 melanoma
  TGI: > 100 µM
MDA-MB-231 breast
  TGI: > 100 µM
OVCAR-4 ovarian
  TGI: > 100 µM
RXF 393 renal
  TGI: > 100 µM
SF-295 CNS
  TGI: > 100 µM
SW-620 colon
  TGI: > 100 µM
UACC-62 melanoma
  TGI: > 100 µM

## [N-]=[N+]=Nc1c([N+](=O)[O-])c(Cl)nc2ccccc12
786-0 renal
  TGI: 1.11 µM
BT-549 breast
  TGI: 3.11 µM
CCRF-CEM leukemia
  TGI: 1.44 µM
M14 melanoma
  TGI: 3.27 µM
MDA-MB-231 breast
  TGI: 3.65 µM
OVCAR-4 ovarian
  TGI: 4.75 µM
RXF 393 renal
  TGI: 3.28 µM
SF-295 CNS
  TGI: 38.5 µM
SW-620 colon
  TGI: 1.73 µM
UACC-62 melanoma
  TGI: 9.07 µM

## Cc1cc2c(cc1C)[n+](=O)c(N1CCN(c3ccc([N+](=O)[O-])cc3)CC1)c(C#N)n2[O-]
786-0 renal
  TGI: 59.8 µM
BT-549 breast
  TGI: > 100 µM
CCRF-CEM leukemia
  TGI: > 100 µM
M14 melanoma
  TGI: > 100 µM
MDA-MB-231 breast
  TGI: 78.1 µM
OVCAR-4 ovarian
  TGI: > 100 µM
RXF 393 renal
  TGI: 29.9 µM
SF-295 CNS
  TGI: 37.8 µM
SW-620 colon
  TGI: > 100 µM
UACC-62 melanoma
  TGI: 59.9 µM

## O=C1c2ccccc2C(=O)N1CCCCCCNOCCCN1C(=O)c2ccccc2C1=O
786-0 renal
  TGI: > 100 µM
BT-549 breast
  TGI: 85.4 µM
CCRF-CEM leukemia
  TGI: > 100 µM
M14 melanoma
  TGI: 61.4 µM
MDA-MB-231 breast
  TGI: > 100 µM
OVCAR-4 ovarian
  TGI: 93.3 µM
RXF 393 renal
  TGI: > 100 µM
SF-295 CNS
  TGI: > 100 µM
SW-620 colon
  TGI: > 100 µM
UACC-62 melanoma
  TGI: 50.3 µM

## CCCN(CCCCN1C(=O)c2ccccc2C1=O)CC1COc2ccccc2O1 (stereo not given)
786-0 renal
  TGI: > 100 µM
BT-549 breast
  TGI: > 100 µM
CCRF-CEM leukemia
  TGI: 88.8 µM
M14 melanoma
  TGI: > 100 µM
MDA-MB-231 breast
  TGI: > 100 µM
OVCAR-4 ovarian
  TGI: > 100 µM
RXF 393 renal
  TGI: > 100 µM
SF-295 CNS
  TGI: > 100 µM
SW-620 colon
  TGI: > 100 µM
UACC-62 melanoma
  TGI: > 100 µM

## COP1(=O)NCc2ncccc2O1 (stereo not given)
786-0 renal
  TGI: > 100 µM
BT-549 breast
  TGI: > 100 µM
CCRF-CEM leukemia
  TGI: > 100 µM
M14 melanoma
  TGI: > 100 µM
MDA-MB-231 breast
  TGI: > 100 µM
OVCAR-4 ovarian
  TGI: > 100 µM
RXF 393 renal
  TGI: > 100 µM
SF-295 CNS
  TGI: > 100 µM
SW-620 colon
  TGI: > 100 µM
UACC-62 melanoma
  TGI: > 100 µM

## O=[N+]([O-])c1cccc2nc3ccccc3c(NCCCN3CCOCC3)c12
786-0 renal
  TGI: 0.0404 µM
BT-549 breast
  TGI: 0.115 µM
CCRF-CEM leukemia
  TGI: 0.13 µM
M14 melanoma
  TGI: 0.0233 µM
MDA-MB-231 breast
  TGI: 0.0973 µM
OVCAR-4 ovarian
  TGI: 0.0494 µM
RXF 393 renal
  TGI: 0.0294 µM
SF-295 CNS
  TGI: 0.0854 µM
SW-620 colon
  TGI: 0.686 µM
UACC-62 melanoma
  TGI: 0.0326 µM

## CCN1CC2=C(NC(=S)NC2c2cc(OC)c(OC)c(OC)c2)/C(=C/c2cc(OC)c(OC)c(OC)c2)C1 (stereo not given)
786-0 renal
  TGI: > 100 µM
BT-549 breast
  TGI: > 100 µM
CCRF-CEM leukemia
  TGI: > 100 µM
M14 melanoma
  TGI: > 100 µM
MDA-MB-231 breast
  TGI: > 100 µM
OVCAR-4 ovarian
  TGI: > 100 µM
RXF 393 renal
  TGI: > 100 µM
SF-295 CNS
  TGI: > 100 µM
SW-620 colon
  TGI: > 100 µM
UACC-62 melanoma
  TGI: > 100 µM

## CC1(C)CN=C(Nc2ccc(Cl)cc2)S1
786-0 renal
  TGI: > 100 µM
BT-549 breast
  TGI: > 100 µM
CCRF-CEM leukemia
  TGI: > 100 µM
M14 melanoma
  TGI: > 100 µM
MDA-MB-231 breast
  TGI: > 100 µM
OVCAR-4 ovarian
  TGI: > 100 µM
RXF 393 renal
  TGI: > 100 µM
SF-295 CNS
  TGI: > 100 µM
SW-620 colon
  TGI: > 100 µM
UACC-62 melanoma
  TGI: > 100 µM
